For orientation: IC50 means the concentration that gives 50% inhibition. A lower IC50 goes with greater potency in that assay.

This assay deals with ROCK2 (Homo sapiens (Human), UniProt O75116). The experiment in a line: ROCK2 kinase IC50 by HTRF KinEASE-STK S2 kit. The format is biochemical. The settings on record: 2 hours at room temperature, ROCK2 (01-119) from Carna Biosciences. Here is the method: The kinase IC50 was determined by a commercialized CISBIO kinase detection kit, HTRF KinEASE-STK S2 kit (62ST2PEC). ROCK2 (01-119) employed in the reaction was purchased from Carna Biosciences.
Sequence of ROCK2 (O75116 1-553 limits assumed): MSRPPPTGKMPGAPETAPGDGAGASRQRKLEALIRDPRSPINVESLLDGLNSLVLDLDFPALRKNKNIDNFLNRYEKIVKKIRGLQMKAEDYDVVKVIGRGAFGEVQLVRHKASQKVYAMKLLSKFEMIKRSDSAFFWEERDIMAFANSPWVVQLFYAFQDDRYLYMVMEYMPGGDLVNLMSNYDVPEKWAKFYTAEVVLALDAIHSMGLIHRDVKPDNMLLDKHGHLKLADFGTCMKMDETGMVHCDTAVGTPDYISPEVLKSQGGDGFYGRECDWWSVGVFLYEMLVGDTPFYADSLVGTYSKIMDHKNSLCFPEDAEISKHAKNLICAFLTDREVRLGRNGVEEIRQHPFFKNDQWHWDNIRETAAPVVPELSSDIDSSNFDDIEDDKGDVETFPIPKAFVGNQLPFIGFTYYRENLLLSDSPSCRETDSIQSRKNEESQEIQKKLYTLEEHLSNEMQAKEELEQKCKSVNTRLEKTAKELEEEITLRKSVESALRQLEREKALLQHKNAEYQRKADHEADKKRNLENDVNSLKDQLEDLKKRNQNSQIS
Before the assay, the following working solutions as needed were formulated with corresponding reagents according to the instruction of the kinase detection kit: 1×kinase buffer, 5×STK-S2 substrate working solution (1.5 μM) and 5×ATP working solution (1.5 μM), 5×ROCK2 kinase working solution, 4×Streptavidin-XL665 working solution, and 4×STK-Ab-Cryptate 2 detection solution. Then the assay was performed according to the following procedure.
A solution of a compound at a concentration of 10000 nM was prepared with the 1×kinase buffer containing 2.5% DMSO. Gradient dilution of the solution of the compound was performed with the kinase buffer containing DMSO, so as to obtain solutions of a test compound at 9 different concentrations. In addition to wells of test compounds, a positive well (containing all the reagents except the compound) and a negative well (containing all the reagents except the test compound and kinase) were set. Except for the control wells (positive and negative wells), a solution of a test compound (4 μL) was added to each of the reaction wells, and a solution of 2.5% DMSO was added to the control wells. Then the substrate (2 μM, i.e., 2 μL 5×STK-S2 substrate working solution) was added to each of the reaction wells. The 5×ROCK2 kinase working solution (2 μL, containing 1.4 ng ROCK2 kinase) was added to each of the reaction wells except for the negative well, the volume of which was made up with the 1×kinase buffer (2 μL). The 5×ATP working solution (2 μL) was added to each of the reaction wells, and the mixtures were incubated at room temperature for 2 hours. After the kinase reaction was complete, the 4×Streptavidin-XL665 working solution was added to each of the reaction wells, the solutions were mixed, followed by immediate addition of the 4×STK-Ab-Cryptate 2 detection solution (5 μL), and the mixtures were incubated at room temperature for 1 hour. The fluorescence signal was read on ENVISION (Perkinelmer) (excitation wavelength: 320 nm, and emission wavelength: 665 nm and 615 nm). The inhibitory rate in each well was calculated based on the fluorescence intensity value: ER (Emission Ratio)=(fluorescence intensity at 665 nm/fluorescence intensity at 615 nm); inhibitory rate=(ERpositive−ERtest compound)/(ERpositive−ERnegative)*100%. Curves were plotted and fitted to obtain the median inhibitory concentration (IC50) of each test compound with the PRISM 5.0 software.
For `O=C(Nc1ccnnc1)c1cc2ccc(-c3nccc(Nc4ccc5[nH]ncc5c4)n3)cc2s1` [TDI01116, 6-(4-((1H-indazol-5-yl)amino)pyrimidin-2-yl)-N-(pyridazin-4-yl)benzo[b]thiophene-2-carboxamide], inhibition was half-maximal at 236 nM (IC50).
For `CN(C(=O)c1cc2ccc(-c3nccc(Nc4ccc5[nH]ncc5c4)n3)cc2[nH]1)c1ccnnc1` [TDI01347, 6-(4-((1H-indazol-5-yl)amino)pyrimidin-2-yl)-N-methyl-N-(pyridazin-4-yl)-1H-indole-2-carboxamide] the value was 356 nM; for `O=C(Nc1ccnnc1)c1ccc2ccc(-c3nccc(Nc4ccc5[nH]ncc5c4)n3)cc2n1` [TDI01236, 7-(4-((1H-indazol-5-yl)amino)pyrimidin-2-yl)-N-(pyridazin-4-yl)quinoline-2-carboxamide], 135 nM; for `Cc1nc(-c2ccc3cc(C(=O)Nc4ccnnc4)[nH]c3c2)nc(Nc2ccc3[nH]ncc3c2)c1C` [TDI01232, 6-(4-((1H-indazol-5-yl)amino)-5,6-dimethylpyrimidin-2-yl)-N-(pyridazin-4-yl)-1H-indole-2-carboxamide], 295 nM.
Under `O=C(Nc1ccnnc1)c1cc2ccc(-c3nc(Nc4ccc5[nH]ncc5c4)cc4nccn34)cc2[nH]1` [TDI01164, 6-(7-((1H-indazol-5-yl)amino)imidazo[1,2-c]pyrimidin-5-yl)-N-(pyridazin-4-yl)-1H-indole-2-carboxamide] stands 438 nM; under `Cn1c(C(=O)Nc2ccnnc2)cc2ccc(-c3nccc(Nc4ccc5[nH]ncc5c4)n3)cc21` [TDI01201, 6-(4-((1H-indazol-5-yl)amino)pyrimidin-2-yl)-1-methyl-N-(pyridazin-4-yl)-1H-indole-2-carboxamide], 48 nM; under `Cc1c(Nc2ccnc(-c3ccc4cc(C(=O)Nc5ccnnc5)[nH]c4c3)n2)ccc2[nH]ncc12` [TDI01276, 6-(4-((4-methyl-1H-indazol-5-yl)amino)pyrimidin-2-yl)-N-(pyridazin-4-yl)-1H-indole-2-carboxamide], 113 nM.
For `O=C(NCc1ccnnc1)c1cc2ccc(-c3nccc(Nc4ccc5[nH]ncc5c4)n3)cc2[nH]1` [TDI01178, 6-(4-((1H-indazol-5-yl)amino)pyrimidin-2-yl)-N-(pyridazin-4-ylmethyl)-1H-indole-2-carboxamide] the value was 168 nM; for `Cc1cc(Nc2ccc3[nH]ncc3c2)nc(-c2ccc3cc(C(=O)Nc4ccnnc4)[nH]c3c2)n1` [TDI01251, 6-(4-((1H-indazol-5-yl)amino)-6-methyl-pyrimidin-2-yl)-N-(pyridazin-4-yl)-1H-indole-2-carboxamide], 101 nM; for `O=C(Nc1ccnnc1)N1Cc2ccc(-c3nccc(Nc4ccc5[nH]ncc5c4)n3)cc2C1` [TDI01237, 5-(4-((1H-indazol-5-yl)amino)pyrimidin-2-yl)-N-(pyridazin-4-yl)isoindoline-2-carboxamide], 171 nM.
`O=C(Nc1cnncc1Cl)c1cc2ccc(-c3nccc(Nc4ccc5[nH]ncc5c4)n3)cc2[nH]1` [TDI01181, 6-(4-((1H-indazol-5-yl)amino)pyrimidin-2-yl)-N-(5-chloro-pyridazin-4-yl)-1H-indole-2-carboxamide] registered a half-maximal inhibitory concentration (IC50) of 92 nM.
Under `O=C(Nc1ccnnc1)c1cc2ccc(-c3nccc(Nc4ccc5[nH]ncc5c4)n3)cc2[nH]1` [TDI01152, 6-(4-((1H-indazol-5-yl)amino)pyrimidin-2-yl)-N-(pyridazin-4-yl)-1H-indole-2-carboxamide] stands 88 nM; under `O=C(Nc1ccnnc1Cl)c1cc2ccc(-c3nccc(Nc4ccc5[nH]ncc5c4)n3)cc2[nH]1` [TDI01180, 6-(4-((1H-indazol-5-yl)amino)pyrimidin-2-yl)-N-(3-chloro-pyridazin-4-yl)-1H-indole-2-carboxamide], 37 nM; under `O=C(Nc1ccnnc1)c1cc2cc(-c3nccc(Nc4ccc5[nH]ncc5c4)n3)ccc2[nH]1` [TDI01188, 5-(4-((1H-indazol-5-yl)amino)pyrimidin-2-yl)-N-(pyridazin-4-yl)-1H-indole-2-carboxamide], 123 nM.
As to `O=C(Nc1ccnnc1)c1cc2ccc(-c3nc(Nc4ccc5[nH]ncc5c4)c4sccc4n3)cc2[nH]1` [TDI01175, 6-(4-((1H-indazol-5-yl)amino)thieno[3,2-d]pyrimidin-2-yl)-N-(pyridazin-4-yl)-1H-indole-2-carboxamide], 197 nM corresponded to half-maximal inhibition (IC50).
`O=C(Nc1ccnnc1)c1c[nH]c2ccc(-c3nccc(Nc4ccc5[nH]ncc5c4)n3)cc12` [TDI01191, 5-(4-((1H-indazol-5-yl)amino)pyrimidin-2-yl)-N-(pyridazin-4-yl)-1H-indole-3-carboxamide] had an IC50 of 225 nM.
Under `O=C(Nc1ccnnc1)c1cc2ccc(-c3ncnc(Nc4ccc5[nH]ncc5c4)n3)cc2[nH]1` [TDI01167, 6-(4-((1H-indazol-5-yl)amino)-1,3,5-triazin-2-yl)-N-(pyridazin-4-yl)-1H-indole-2-carboxamide] stands 223 nM; under `O=C(Nc1ccnnc1)c1cc2ccc(-c3ncc(F)c(Nc4ccc5[nH]ncc5c4)n3)cc2[nH]1` [TDI01213, 6-(4-((1H-indazol-5-yl)amino)-5-fluoro-pyrimidin-2-yl)-N-(pyridazin-4-yl)-1H-indole-2-carboxamide], 255 nM; under `Cc1cnc(-c2ccc3cc(C(=O)Nc4ccnnc4)[nH]c3c2)nc1Nc1ccc2[nH]ncc2c1` [TDI01250, 6-(4-((1H-indazol-5-yl)amino)-5-methyl-pyrimidin-2-yl)-N-(pyridazin-4-yl)-1H-indole-2-carboxamide], 208 nM.

These data come from patent publication US10323023B2, “Rho-associated protein kinase inhibitor, pharmaceutical composition comprising the same, as well as preparation method and use thereof” (Beijing Tide Pharmaceutical Co., Ltd., priority 2017, dated 2019).
